Laboratory results taken from PubChem BioAssay (NCI).
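Five concentrations, 48 hours, 96-well plates. GI50 marks 50% less growth. TGI marks complete inhibition of growth.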

Assays:
Experiment in all cases: inhibition of tumour cell growth, NCI panel, 48 h
SK-MEL-2 melanoma = system: SK-MEL-2 melanoma
SF-268 CNS = system: SF-268 CNS
HT29 colon = system: HT29 colon
ACHN renal = system: ACHN renal
MALME-3M melanoma = system: MALME-3M melanoma
PC-3 prostate = system: PC-3 prostate
HOP-92 NSCLC = system: HOP-92 NSCLC
NCI-H226 lung = system: NCI-H226 lung
SF-539 CNS = system: SF-539 CNS
BT-549 breast = system: BT-549 breast
786-0 renal = system: 786-0 renal
RPMI-8226 leukemia = system: RPMI-8226 leukemia
HS 578T breast = system: HS 578T breast
MDA-MB-435 = system: MDA-MB-435
M14 melanoma = system: M14 melanoma
MCF7 breast = system: MCF7 breast
OVCAR-5 ovarian = system: OVCAR-5 ovarian
UO-31 renal = system: UO-31 renal
OVCAR-3 ovarian = system: OVCAR-3 ovarian
LOX IMVI melanoma = system: LOX IMVI melanoma
SN12C renal = system: SN12C renal
SK-OV-3 ovarian = system: SK-OV-3 ovarian
MOLT-4 leukemia = system: MOLT-4 leukemia
SNB-19 CNS = system: SNB-19 CNS
SF-295 CNS = system: SF-295 CNS
RXF 393 renal = system: RXF 393 renal
UACC-62 melanoma = system: UACC-62 melanoma
DU-145 prostate = system: DU-145 prostate
NCI-H460 lung = system: NCI-H460 lung
NCI-H23 lung = system: NCI-H23 lung
NCI/ADR-RES ovarian = system: NCI/ADR-RES ovarian
HOP-62 NSCLC = system: HOP-62 NSCLC
HL-60(TB) leukemia = system: HL-60(TB) leukemia
SNB-75 CNS = system: SNB-75 CNS
OVCAR-8 ovarian = system: OVCAR-8 ovarian
MDA-MB-231 breast = system: MDA-MB-231 breast
TK-10 renal = system: TK-10 renal
CCRF-CEM leukemia = system: CCRF-CEM leukemia
KM12 colon = system: KM12 colon
A549 NSCLC = system: A549 NSCLC
U251 CNS = system: U251 CNS
UACC-257 melanoma = system: UACC-257 melanoma
K-562 leukemia = system: K-562 leukemia
IGROV1 ovarian = system: IGROV1 ovarian
SK-MEL-5 melanoma = system: SK-MEL-5 melanoma
HCT-116 colon = system: HCT-116 colon
A498 renal = system: A498 renal
HCT-15 colon = system: HCT-15 colon
NCI-H522 lung = system: NCI-H522 lung
SK-MEL-28 melanoma = system: SK-MEL-28 melanoma
CAKI-1 renal = system: CAKI-1 renal
EKVX NSCLC = system: EKVX NSCLC
SR leukemia = system: SR leukemia

Structure (SMILES): Cc1sc2c(c1C)C(c1ccc(Cl)cc1)=N[C@@H](CC(=O)NCCCCCNC(=O)COc1ccc(C3CCC(=O)NC3=O)cc1)c1nnc(C)n1-2 (some centres undefined)
- GI50 (SK-MEL-2 melanoma): 371 nM
- TGI (SK-MEL-2 melanoma): > 100000 nM
- GI50 (SF-268 CNS): 629 nM
- TGI (SF-268 CNS): > 100000 nM
- GI50 (HT29 colon): 950 nM
- TGI (HT29 colon): > 100000 nM
- GI50 (ACHN renal): 20700 nM
- TGI (ACHN renal): > 100000 nM
- GI50 (MALME-3M melanoma): 788 nM
- TGI (MALME-3M melanoma): > 100000 nM
- GI50 (PC-3 prostate): 134 nM
- TGI (PC-3 prostate): > 100000 nM
- GI50 (HOP-92 NSCLC): 61.9 nM
- GI50 (NCI-H226 lung): 476 nM
- TGI (NCI-H226 lung): > 100000 nM
- GI50 (SF-539 CNS): 439 nM
- TGI (SF-539 CNS): > 100000 nM
- GI50 (BT-549 breast): 54.7 nM
- TGI (BT-549 breast): 541 nM
- GI50 (786-0 renal): 2080 nM
- TGI (786-0 renal): > 100000 nM
- GI50 (RPMI-8226 leukemia): 38 nM
- TGI (RPMI-8226 leukemia): 1120 nM
- GI50 (HS 578T breast): 154 nM
- TGI (HS 578T breast): > 100000 nM
- GI50 (MDA-MB-435): 171 nM
- TGI (MDA-MB-435): > 100000 nM
- GI50 (M14 melanoma): 1010 nM
- TGI (M14 melanoma): > 100000 nM
- GI50 (MCF7 breast): 39.7 nM
- TGI (MCF7 breast): > 100000 nM
- GI50 (OVCAR-5 ovarian): 795 nM
- TGI (OVCAR-5 ovarian): > 100000 nM
- GI50 (UO-31 renal): 3200 nM
- TGI (UO-31 renal): 53900 nM
- GI50 (OVCAR-3 ovarian): 2300 nM
- TGI (OVCAR-3 ovarian): > 100000 nM
- GI50 (LOX IMVI melanoma): 1480 nM
- TGI (LOX IMVI melanoma): > 42900 nM
- GI50 (SN12C renal): 293 nM
- TGI (SN12C renal): > 100000 nM
- GI50 (SK-OV-3 ovarian): 3310 nM
- TGI (SK-OV-3 ovarian): > 100000 nM
- GI50 (MOLT-4 leukemia): 113 nM
- TGI (MOLT-4 leukemia): > 100000 nM
- GI50 (SNB-19 CNS): 438 nM
- TGI (SNB-19 CNS): > 100000 nM
- GI50 (SF-295 CNS): 3110 nM
- TGI (SF-295 CNS): > 100000 nM
- GI50 (RXF 393 renal): 2170 nM
- TGI (RXF 393 renal): > 100000 nM
- GI50 (UACC-62 melanoma): 429 nM
- TGI (UACC-62 melanoma): > 100000 nM
- GI50 (DU-145 prostate): > 100000 nM
- TGI (DU-145 prostate): > 100000 nM
- GI50 (NCI-H460 lung): 47400 nM
- TGI (NCI-H460 lung): > 100000 nM
- GI50 (NCI-H23 lung): 13100 nM
- TGI (NCI-H23 lung): > 100000 nM
- GI50 (NCI/ADR-RES ovarian): > 100000 nM
- TGI (NCI/ADR-RES ovarian): > 100000 nM
- GI50 (HOP-62 NSCLC): 644 nM
- TGI (HOP-62 NSCLC): > 100000 nM
- TGI (HL-60(TB) leukemia): 99.5 nM
- GI50 (SNB-75 CNS): < 18.9 nM
- TGI (SNB-75 CNS): 389 nM
- GI50 (OVCAR-8 ovarian): 298 nM
- TGI (OVCAR-8 ovarian): > 100000 nM
- GI50 (MDA-MB-231 breast): 90.8 nM
- TGI (MDA-MB-231 breast): > 100000 nM
- GI50 (TK-10 renal): 1700 nM
- TGI (TK-10 renal): > 40900 nM
- GI50 (CCRF-CEM leukemia): 51.9 nM
- TGI (CCRF-CEM leukemia): > 100000 nM
- GI50 (KM12 colon): 483 nM
- TGI (KM12 colon): > 100000 nM
- GI50 (A549 NSCLC): 3960 nM
- TGI (A549 NSCLC): > 100000 nM
- GI50 (U251 CNS): 3090 nM
- TGI (U251 CNS): > 100000 nM
- GI50 (UACC-257 melanoma): > 26300 nM
- TGI (UACC-257 melanoma): > 100000 nM
- GI50 (K-562 leukemia): 565 nM
- TGI (K-562 leukemia): > 100000 nM
- GI50 (IGROV1 ovarian): 269 nM
- TGI (IGROV1 ovarian): > 100000 nM
- GI50 (SK-MEL-5 melanoma): 345 nM
- TGI (SK-MEL-5 melanoma): 3450 nM
- GI50 (HCT-116 colon): 1690 nM
- TGI (HCT-116 colon): > 100000 nM
- GI50 (A498 renal): 6270 nM
- TGI (A498 renal): > 100000 nM
- GI50 (HCT-15 colon): 3770 nM
- TGI (HCT-15 colon): > 89500 nM
- GI50 (NCI-H522 lung): 4370 nM
- TGI (NCI-H522 lung): > 100000 nM
- GI50 (SK-MEL-28 melanoma): 901 nM
- TGI (SK-MEL-28 melanoma): > 100000 nM
- GI50 (CAKI-1 renal): 845 nM
- TGI (CAKI-1 renal): > 100000 nM
- GI50 (EKVX NSCLC): 2500 nM
- TGI (EKVX NSCLC): > 100000 nM
- GI50 (SR leukemia): 64.5 nM
- TGI (SR leukemia): > 100000 nM
